Source: PMC5441580, “GPR40 partial agonist MK-2305 lower fasting glucose in the Goto Kakizaki rat via suppression of endogenous glucose production” (PLoS ONE, 2017)
Several values for one entry are separate records, joined by “and”; a condition that tells them apart may be missing. Identical values can stand only once.

Assays:
GK rats = test: GK rat chronic efficacy, compound in feed for 20 days; assay type: in vivo; details: for % HBA1c / Liver Triglycerides: following 20 days of treatment in the GK rat; for % HBA1c / Liver Triglycerides / Fasted blood glucose / Fasted plasma insulin: individual animals
Protocol: At the start of the study, fed glucose was measured at 8 A.M., and animals were selected and sorted into treatment groups based on ambient glucose (n = 10/male GK group, n = 6/male WKY control group). […] Fed blood glucose, food intake, and body weights were determined on days 0, 1, 3, 7, and 14 of study at 8 A.M. On days 7 and 14, food was removed for 5 h and plasma glucose was measured. Percent inhibitions were calculated as the percent reduction of blood glucose from the average value for vehicle controls. On day 14, blood was collected from the tail vein (20 μl) after the morning glucose measurement and after 5 h fast from a subset of n = 3 rats per treatment group to determine the ambient and fasted exposure of the compounds in circulation. The blood was stored at 4°C in 0.1 M sodium monocitrate for subsequent analysis. Animals were then re-fed their respective diet treatments. On day 20 of treatment at 8 A.M., blood glucose was measured and then animals were euthanized via CO2 asphyxiation. Blood and liver tissue were sampled, processed, and stored at -80°C until analysis.
Plasma was analyzed for triglycerides, NEFA, and HbA1C using a P Modular Roche Clinical Chemistry analyzer. Liver triglycerides were extracted as described by Bligh and Dyer, and were measured using the Infinity triglyceride assay kit (Thermo Scientific, Rockford, IL). Plasma insulin levels were measured via EIA (Mesoscale Discovery ELISA Kit, Gaithersburg MD).

human GPR43 (FFAR2) = molecular target: T1, human GPR43 (FFAR2) (Homo sapiens, UniProt O15552); test: cAMP (LANCE) functional assay, CHO cells expressing human GPR43; assay type: cell-based
T1 construct: expressed in transfected cells
T1 sequence (O15552 1-330): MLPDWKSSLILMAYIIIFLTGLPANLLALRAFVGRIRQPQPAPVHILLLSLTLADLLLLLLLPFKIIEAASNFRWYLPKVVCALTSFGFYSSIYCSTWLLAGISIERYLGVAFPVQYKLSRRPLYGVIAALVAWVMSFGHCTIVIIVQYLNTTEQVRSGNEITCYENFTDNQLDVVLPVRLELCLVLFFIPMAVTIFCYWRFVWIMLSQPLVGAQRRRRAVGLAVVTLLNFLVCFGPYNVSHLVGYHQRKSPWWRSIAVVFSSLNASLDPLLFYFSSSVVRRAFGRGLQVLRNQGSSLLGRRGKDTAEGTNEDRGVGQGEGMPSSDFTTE
Protocol: CHO cells stably expressing human GPR41 or human GPR43 were harvested with non-enzymatic cell dissociation buffer and re-suspended in LANCE stimulation buffer (prepared as described by PE) at 0.25 million cells per ml (3.3 million cells per ml for GPR43) and 6 μl was then plated into each well of a 384-well Culturplate. Compounds were serially diluted in DMSO and then diluted further into stimulation buffer containing 2 μM forskolin (Sigma) at 2-times final concentration in the assay. 6 μl of the diluted compounds were then added to the assay plate and the plate incubated for 60 mins at room temperature. After the incubation, 12 μl of detection reagent (prepared as described by PE) was added to each well and the plates incubated one additional hour at room temperature. After the final incubation, the plates were read in a Perkin Elmer Envision reader with a method designed for Time-resolved fluorescence (TRF) assays (340 nm excitation, dual emission 615 and 655 nm). For each assay, a cAMP standard curve plate was also included. All fluorescent readings (using the 655/615 nm ratio) were converted to cAMP concentration using the cAMP standard curve and the percent activity at each concentration of test compound was determined using 0% activation (basal activity) determined in those wells containing DMSO alone, while 100% activity was determined in wells containing a concentration of agonist know to maximally activate the receptor.

effect on food intake (GK rats; 10 mg/kg in feed, GK rats): no significant effect
% Activation (human GPR43 (FFAR2); @ 25 μM): 61 @ 25 μM % and 61%
% Effect (human GPR43 (FFAR2); Dose 1.267 nM): -23%
% Effect (human GPR43 (FFAR2); Dose 3.801 nM): -37%
% Effect (human GPR43 (FFAR2); Dose 34.208 nM): -32%
% Effect (human GPR43 (FFAR2); Dose 102.624 nM): 25%
% Effect (human GPR43 (FFAR2); Dose 307.872 nM): -78%
% Effect (human GPR43 (FFAR2); Dose 923.617 nM): -34%
% Effect (human GPR43 (FFAR2); Dose 2770.85 nM): -39%
% Effect (human GPR43 (FFAR2); Dose 8312.55 nM): -23%
% Effect (human GPR43 (FFAR2); Dose 24938 nM): 61%
EC50 (human GPR43 (FFAR2); cAMP, CHO cells expressing human GPR43): > 25 µM
SMILES: O=C1NC(=O)C(C2CCOc3cc(Oc4ccc(C(F)(F)F)cc4Cl)ccc32)S1 (centres unmarked) [MK-2305]
effect on body weight (GK rats; 10 mg/kg in feed, GK rats): no significant effect
effect on food intake (GK rats; 30 mg/kg in feed, GK rats, p < 0.05): reduction in food intake that persisted through day 14
effect on body weight (GK rats; 30 mg/kg in feed, GK rats, relative to vehicle controls): did not correspond to changes in body weight
% HBA1c (GK rats; 10 mpk): 4.3% and 4.6% and 4.2% and 4.4% and 4.5%
Liver Triglycerides (GK rats; 10 mpk): 19.1 mg/g tissue and 21.7 mg/g tissue and 24.5 mg/g tissue and 22.1 mg/g tissue and 24.7 mg/g tissue and 26.9 mg/g tissue and 25.8 mg/g tissue and 22.8 mg/g tissue
Morning (fed) Blood Glucose (GK rats; 30 mpk in feed, Day 0 (start of study), individual GK rats): 189 mg/dL and 176 mg/dL and 238 mg/dL and 199 mg/dL and 183 mg/dL and 212 mg/dL and 192 mg/dL and 274 mg/dL and 228 mg/dL
Morning (fed) Blood Glucose (GK rats; 30 mpk in feed, Day 1, individual GK rats): 147 mg/dL and 165 mg/dL and 223 mg/dL and 161 mg/dL and 155 mg/dL and 192 mg/dL and 153 mg/dL and 302 mg/dL and 159 mg/dL
Morning (fed) Blood Glucose (GK rats; 30 mpk in feed, Day 3, individual GK rats): 139 mg/dL and 153 mg/dL and 156 mg/dL and 150 mg/dL and 169 mg/dL and 149 mg/dL and 154 mg/dL and 218 mg/dL and 134 mg/dL
Morning (fed) Blood Glucose (GK rats; 30 mpk in feed, Day 7, individual GK rats): 139 mg/dL and 153 mg/dL and 126 mg/dL and 142 mg/dL and 151 mg/dL and 181 mg/dL and 197 mg/dL and 140 mg/dL
Morning (fed) Blood Glucose (GK rats; 30 mpk in feed, Day 14, individual GK rats): 141 mg/dL and 143 mg/dL and 156 mg/dL and 133 mg/dL and 132 mg/dL and 146 mg/dL and 147 mg/dL
Morning (fed) Blood Glucose (GK rats; 30 mpk in feed, Day 20, individual GK rats): 128 mg/dL and 137 mg/dL and 159 mg/dL and 133 mg/dL and 139 mg/dL and 122 mg/dL and 126 mg/dL and 115 mg/dL and 142 mg/dL
% HBA1c (GK rats; 30 mpk): 4.4% and 4.5% and 4.3%
Liver Triglycerides (GK rats; 30 mpk): 16.7 mg/g tissue and 23.9 mg/g tissue and 28.2 mg/g tissue and 27.1 mg/g tissue and 24.5 mg/g tissue and 23 mg/g tissue and 24.3 mg/g tissue
Fasted blood glucose (GK rats; Day 7, ~6 hrs after food removal, 30mpk, chronic study, 30 mg/kg): 110 mg/dl (2×) and 125 mg/dl and 135 mg/dl and 103 mg/dl and 141 mg/dl and 118 mg/dl (2×) and 114 mg/dl
Fasted plasma insulin (GK rats; Day 7, 10mpk, 10 mg/kg): 405.2 pg/mL and 91.1 pg/mL and 88.1 pg/mL and 159.3 pg/mL and 284.1 pg/mL and 97.1 pg/mL and 80.9 pg/mL and 605.6 pg/mL and 106.3 pg/mL
Fasted plasma insulin (GK rats; Day 7, 30mpk, 30 mg/kg): 199.5 pg/mL and 58.7 pg/mL and 102.1 pg/mL and 88.8 pg/mL and 104.2 pg/mL and 182.8 pg/mL and 66.3 pg/mL and 259.0 pg/mL and 51.6 pg/mL
Fasted plasma insulin (GK rats; Day 14, 10mpk, 10 mg/kg): 66.8 pg/mL and 405.9 pg/mL and 135.1 pg/mL and 49.4 pg/mL and 1589.0 pg/mL and 353.3 pg/mL and 247.1 pg/mL and 127.3 pg/mL and 158.9 pg/mL
Fasted plasma insulin (GK rats; Day 14, 30mpk, 30 mg/kg): 80.8 pg/mL and 3482.1 pg/mL and 77.9 pg/mL and 794.5 pg/mL and 102.8 pg/mL and 430.5 pg/mL and 972.9 pg/mL and 1169.4 pg/mL and 1639.6 pg/mL
NEFA (mEq/L) (GK rats; MK2305 @ 10, 20 days of treatment, individual GK rats): 0.23 mEq/L and 0.33 mEq/L and 0.26 mEq/L and 0.5 mEq/L and 0.19 mEq/L and 0.37 mEq/L and 0.32 mEq/L
NEFA (mEq/L) (GK rats; MK2305 @ 30, 20 days of treatment, individual GK rats): 0.21 mEq/L and 0.43 mEq/L and 0.24 mEq/L and 0.45 mEq/L and 0.39 mEq/L and 0.38 mEq/L and 0.22 mEq/L and 0.34 mEq/L
Morning (fed) Blood Glucose (GK rats; MK-2305 10 mpk in feed, Day 0 (start of study), individual GK rats, 10 mg/kg): 184 mg/dL and 260 mg/dL and 210 mg/dL and 227 mg/dL and 237 mg/dL and 193 mg/dL and 200 mg/dL and 191 mg/dL and 179 mg/dL
Morning (fed) Blood Glucose (GK rats; MK-2305 10 mpk in feed, Day 1, individual GK rats, 10 mg/kg): 170 mg/dL and 247 mg/dL and 203 mg/dL and 186 mg/dL and 231 mg/dL and 179 mg/dL and 277 mg/dL and 199 mg/dL and 162 mg/dL
Morning (fed) Blood Glucose (GK rats; MK-2305 10 mpk in feed, Day 3, individual GK rats, 10 mg/kg): 158 mg/dL and 166 mg/dL and 183 mg/dL and 172 mg/dL and 163 mg/dL and 169 mg/dL and 170 mg/dL and 167 mg/dL
Morning (fed) Blood Glucose (GK rats; MK-2305 10 mpk in feed, Day 7, individual GK rats, 10 mg/kg): 150 mg/dL and 185 mg/dL and 138 mg/dL and 158 mg/dL and 179 mg/dL and 152 mg/dL and 224 mg/dL and 161 mg/dL
Morning (fed) Blood Glucose (GK rats; MK-2305 10 mpk in feed, Day 14, individual GK rats, 10 mg/kg): 146 mg/dL and 143 mg/dL and 176 mg/dL and 141 mg/dL and 140 mg/dL and 169 mg/dL and 230 mg/dL
Morning (fed) Blood Glucose (GK rats; MK-2305 10 mpk in feed, Day 20, individual GK rats, 10 mg/kg): 146 mg/dL and 140 mg/dL and 150 mg/dL and 149 mg/dL and 138 mg/dL and 145 mg/dL and 163 mg/dL and 120 mg/dL
decrease in fed glucose vs. vehicle (GK rats; day 3, 10 mg/kg in feed, GK rats, p < 0.05): 22%
decrease in fed glucose vs. vehicle (GK rats; day 3, 30 mg/kg in feed, GK rats, p < 0.05): 27%
reduction in fasting blood glucose vs. vehicle (GK rats; day 7, 5 hr fast, 10 mg/kg in feed, GK rats): 19%
reduction in fasting blood glucose vs. vehicle (GK rats; day 7, 5 hr fast, 30 mg/kg in feed, GK rats): 19%
reduction in fasting blood glucose vs. vehicle (GK rats; day 14, 5 hr fast, 10 mg/kg in feed, GK rats): 26%
reduction in fasting blood glucose vs. vehicle (GK rats; day 14, 5 hr fast, 30 mg/kg in feed, GK rats): 30%
effect on circulating HbA1C levels (GK rats; day 20, GK rats, all treatment groups): significantly reduced
effect on liver triglyceride levels (GK rats; day 20, GK rats, vs. vehicle controls): no effect
effect on plasma non-esterified fatty acid (NEFA) levels (GK rats; day 20, either dose (10, 30 mg/kg), GK rats): no effect
effect on fasted plasma insulin (GK rats; days 7 and 14, 5 hr fast, GK rats): no significant effects
Fasted blood glucose (GK rats; second block of the table (day 14 per title), 10mpk, 10 mg/kg): 151 mg/dL and 95 mg/dL and 111 mg/dL and 128 mg/dL and 118 mg/dL and 120 mg/dL and 116 mg/dL and 138 mg/dL and 117 mg/dL
Fasted blood glucose (GK rats; second block of the table (day 14 per title), 30mpk, 30 mg/kg): 112 mg/dl and 113 mg/dl and 108 mg/dl and 115 mg/dl (2×) and 126 mg/dl and 105 mg/dl and 123 mg/dl and 119 mg/dl
